{"source": "paper PMC5882690", "about": "“Mechanical characteristics of beta sheet-forming peptide hydrogels are dependent on peptide sequence, concentration and buffer composition” (Royal Society Open Science, 2018)", "key": {"[1]": {"experiment": "Oscillatory amplitude sweep (storage modulus G′ in linear viscoelastic region, yield point)", "format": "physicochemical", "settings": "for yield point YP / peptide hydrogel stiffness G′ / yield point YP (strain where G′ < 95% of original value): mean ± SD, n = 3; for peptide hydrogel stiffness G′: 140 mM ionic strength, assembled overnight; for peptide hydrogel stiffness G′ / yield point YP (strain where G′ < 95% of original value): 37°C", "method": "[…] The amplitude sweep tests were performed to measure storage moduli (G′) within the linear viscoelastic region. Calculations of the gel breaking points (yield points) were performed with MATLAB depending on the different peptide concentrations. Therefore, the yield strain was defined as the point where G′ is less than 95% of its original value. Oscillatory time sweep experiments were performed to study the gelation speed and hydrogel stiffness. Time sweeps up to 150 min measuring time using a frequency of 1 rad s^−1 and amplitude gamma of 0.05% were used. SAP hydrogel stiffness was determined after the equilibrium of the storage modulus (G′) was reached (t = 100 min). To determine the gelation speed, the slope of increasing storage modulus over time was calculated in the interval from t = 5 to 10 min after placing peptide solutions onto the rheometer.\nTo study SAP hydrogel stiffness within the linear viscoelastic region and gel breaking points according to the peptide concentrations, unary SAP hydrogels (300 µl) were prepared in vials at concentrations of 15 mg ml^−1, 20 mg ml^−1 and 30 mg ml^−1 by dissolving first the lyophilized peptides in 150 µl of buffer A and then adding 150 µl of peptide-specific Tris–NaCl buffer B according to table 1. Complementary SAP hydrogels (P11-13/14 and P11-28/29) were obtained by dissolving 150 µl of P11-13 in 0.1 M Tris buffer + 0.052 M NaCl pH 8 and 150 µl P11-14 in 0.055 M Tris buffer + 0.096 M NaCl pH 7.2 (table 1). The P11-13 and P11-14 solutions were then mixed (1 : 1) to obtain 300 µl of complementary SAP hydrogel with a final ionic strength of 140 mM and a pH of 7.2. All SAP hydrogels were allowed to assemble overnight.\nTo study the influence of divalent ions and different media on SAP hydrogel stiffness, gelation speed and gel breaking points (yield points), SAPs were prepared at a concentration of 15 mg ml^−1 in the different media, Tris–NaCl, Tris–MgSO4, DMEM or artificial saliva, according to table 1. All experiments were done at least in duplicate. Statistical evaluation was performed with GRAPHPAD PRISM version 6.0 based on a one-way ANOVA test followed by Tukey's multiple comparison test."}, "[2]": {"experiment": "SAP hydrogel dissolution in PBS or TYSB medium (peptide content of supernatant)", "format": "physicochemical", "settings": "37°C, 20 mg ml^-1 P11-4, 15 mg ml^-1 others, Qubit Protein Assay, mean ± SD, n = 3", "method": "(§1) SAP hydrogel dissolution and degradation properties of the peptides in the presence and absence of neutrophilic elastase and microorganisms were measured by determining the peptide content of the supernatant. Therefore, SAPs were assembled in PBS at concentrations of 20 mg ml^−1 for P11-4 and 15 mg ml^−1 for P11-8, P11-13/14 and P11-28/29. The assay was performed in a 96-well plate with gel volumes of 100 µl well^−1. 86 units ml^−1 elastase (Innovative Research, USA) (100 µg ml^−1) were added to the assembled peptides in PBS solution. After 24 h incubation at 37°C and 5% CO2, 10 µl of the supernatant was sterilely removed after 24 and 168 h and measured indirectly by monomeric peptide concentration in the supernatant using the Qubit® Protein Assay (Q33211; Thermo Fisher; fluorescence at 485/590 nm) and transferred back for the remainder of the experiment allowing peptide hydrogel degradation measurement without disturbing the hydrogel to buffer fluid balance. The measurements are based on the fact that degraded peptides cause disassembly of the fibrils, as assembly rules are no longer given, resulting in an increase in monomeric SAP in solution. SAP concentrations were calculated based on respective peptide standard curves. For data analysis, SAP concentrations measured in the supernatant were calculated as a percentage of the specific starting concentrations of each peptide system. Statistical analysis was done using a two-way ANOVA followed by Sidak's multiple comparison test.\nThe stability of the hydrogels versus bacterial degradation was tested by the exposure to the bacterial strains Streptococcus mutans (S. mutans), Pseudomonas aeruginosa (P. aeruginosa) and Staphylococcus aureus (S. aureus; all from Leibniz-Institut DSMZ GmbH). Therefore, the bacterial strains were applied (10^6 CFU ml^−1) on the top of each gel (20 mg ml^−1 for P11-4 and 15 mg ml^−1 for P11-8, P11-13/14 and P11-28/29) in their respective media (Neurobasal medium for P. aeruginosa (Thermo Fisher), Tryptic Soy Broth (TYSB) medium for S. mutans and S. aureus). After 1 and 7 days of incubation at 37°C, 10 µl of each supernatant was analysed subsequent to centrifugation of the samples using the Qubit® Protein Assay. Calculations were performed as described previously for the elastase degradation study. Statistical analysis was performed with Graphpad Prism version 6.0 using a two-way ANOVA followed by Dunnett's multiple comparison test."}, "[3]": {"target": "T1, human neutrophil elastase (Homo sapiens, UniProt P08246)", "T1 construct": "purchased Innovative Research, USA", "T1 sequence (P08246 30-267)": "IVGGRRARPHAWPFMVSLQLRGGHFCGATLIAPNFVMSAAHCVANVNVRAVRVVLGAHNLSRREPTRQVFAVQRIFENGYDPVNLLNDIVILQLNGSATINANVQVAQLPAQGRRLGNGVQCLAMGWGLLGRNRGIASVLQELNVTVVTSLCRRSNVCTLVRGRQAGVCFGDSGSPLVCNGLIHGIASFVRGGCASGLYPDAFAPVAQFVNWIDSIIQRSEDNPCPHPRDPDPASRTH", "experiment": "SAP hydrogel degradation by human neutrophil elastase", "format": "in vitro ADME", "settings": "human neutrophil elastase 100 µg ml^-1 (86 units ml^-1) in PBS, 37°C, 5% CO2, 20 mg ml^-1 P11-4, 15 mg ml^-1 others, Qubit Protein Assay, mean ± SD, n = 3", "method": "as §1"}, "[4]": {"settings": "15 mg ml^-1, Tris–NaCl, amplitude sweep"}, "[5]": {"settings": "20 mg ml^-1, Tris–NaCl, amplitude sweep"}, "[6]": {"settings": "30 mg ml^-1, Tris–NaCl, amplitude sweep"}}, "note": "Where a SMILES comes first, the peptide text is derived from it."}
{"smiles": "CC(=O)N[C@@H](CCC(N)=O)C(=O)N[C@@H](CCC(N)=O)C(=O)N[C@@H](CCCNC(=N)N)C(=O)N[C@@H](Cc1ccccc1)C(=O)N[C@@H](CCC(=O)O)C(=O)N[C@@H](Cc1c[nH]c2ccccc12)C(=O)N[C@@H](CCC(=O)O)C(=O)N[C@@H](Cc1ccccc1)C(=O)N[C@@H](CCC(=O)O)C(=O)N[C@@H](CCC(N)=O)C(=O)N[C@@H](CCC(N)=O)C(N)=O", "note": "[P11-4, CH3CO-QQRFEWEFEQQ-NH2] (Ac-QQRFEWEFEQQ-NH2)", "values": [{"measurement": "yield point YP", "setting": "[1]; 15 mg ml^-1, Tris–MgSO4, amplitude sweep", "value": "0.05±0.03", "unit": "%"}, {"measurement": "peptide hydrogel stiffness G′", "setting": "[1]; [4]", "value": "2.1± 1.0", "unit": "kPa"}, {"measurement": "yield point YP (strain where G′ < 95% of original value)", "setting": "[1]; [4]", "value": "2.3±0.3", "unit": "%"}, {"measurement": "yield point YP", "setting": "[1]; [4]", "value": "0.45± 0.05", "unit": "%"}, {"measurement": "yield point YP", "setting": "[1]; 15 mg ml^-1, artificial saliva, amplitude sweep up to 100% strain", "value": "0.3 ± 0.02", "unit": "%"}, {"measurement": "yield point YP", "setting": "[1]; 15 mg ml^-1, serum-free DMEM, amplitude sweep up to 100% strain", "value": "2.3 ± 0.44", "unit": "%"}, {"measurement": "peptide hydrogel stiffness G′", "setting": "[1]; [5]", "value": "2.4± 0.3", "unit": "kPa"}, {"measurement": "yield point YP (strain where G′ < 95% of original value)", "setting": "[1]; [5]", "value": "1.3±0.3", "unit": "%"}, {"measurement": "peptide hydrogel stiffness G′", "setting": "[1]; [6]", "value": "4.6± 1.3", "unit": "kPa"}, {"measurement": "yield point YP (strain where G′ < 95% of original value)", "setting": "[1]; [6]", "value": "1.2±0.7", "unit": "%"}, {"measurement": "factor of increase of SAP hydrogel stiffness", "setting": "[1]; doubling SAP concentration from 15 to 30 mg ml^-1, Tris–NaCl", "value": 2}, {"measurement": "relative peptide amount in supernatant (% of peptide starting concentration)", "setting": "[2]; Medium (TYSB), 1 d", "value": "0.4± 0.1", "unit": "%"}, {"measurement": "relative peptide amount in supernatant (% of peptide starting concentration)", "setting": "[2]; Medium (TYSB), 7 d", "value": "4.6± 2.5", "unit": "%"}, {"measurement": "relative peptide amount in supernatant (% of peptide starting concentration)", "setting": "[2]; PBS, 1 d, gel assembled in PBS, 100 µl, fluorescence 485/590 nm", "value": "10.6± 5.7", "unit": "%"}, {"measurement": "relative peptide amount in supernatant (% of peptide starting concentration)", "setting": "[2]; PBS, 7 d, gel assembled in PBS, 100 µl, fluorescence 485/590 nm", "value": "9.4± 4.4", "unit": "%"}, {"measurement": "relative peptide amount in supernatant (% of peptide starting concentration)", "setting": "[3]; 1 d", "value": "14.7± 2.8", "unit": "%"}, {"measurement": "relative peptide amount in supernatant (% of peptide starting concentration)", "setting": "[3]; 7 d", "value": "12.8± 5.8", "unit": "%"}]}
